This note sets out measurements from PMC9229894, “In Silico, In Vitro, and Pharmacokinetic Studies of UBMC-4, a Potential Novel Compound for Treating against Trypanosoma cruzi” (Pathogens, 2022).

Structures are written as SMILES.

What all share (assay type): cell-based, Trypanosoma cruzi
Experiment [1] has as its system T. cruzi epimastigotes. The experiment can be described thus: Intracellular ROS production in epimastigotes (H2DCFDA). The note with it: 10 µM, 24 h. On the procedure: A total of 1.4 × 10^6 epimastigotes grown under normal and stress nutritional conditions were treated with 10 µM UBMC-4 for 24 h and the intracellular ROS concentration was determined by fluorometric testing with the diacetate 2′,7′-dichlorodihydrofluorescein (H2DCFDA) probe at 0.2 µg/mL. As controls, cell cultures both treated with no probe as well as only labeled with H2DCFDA were performed to determine baseline fluorescence. A ROS-production positive control was set up by challenging parasites with […] rotenone (a ROS inducer) for 1 h prior to labeling and reading. After the treatment, parasites were washed and resuspended in 100 µL of the H2DCFDA-containing solution, transferred to 96-well plates protected from the light, and then incubated for 1 h at 37 °C. The test readout was collected using an ELISA plate reader at an excitation wavelength of 495 nm and emission wavelength of 527 nm, respectively. Each treatment was performed in triplicate, and data were reported in arbitrary units of fluorescence.

Experiment [2] relates to T. cruzi epimastigotes. In words: Flow cytometry of apoptosis-like markers in epimastigotes (Hoechst, DiOC6, PI). The note with it: 10 µM, 24 h. On the procedure: (§1) Apoptosis-like markers were analyzed by triple staining using 3,3′-dihexyloxacarbocyanine (DiOC6), propidium iodide (PI), and Hoechst from Thermo Fisher Scientific to determine the change of mitochondrial membrane potential (ΔΨm), cell membrane damage, and impairment of cell cycle, respectively. All readings were performed on a BD FACSCanto II 4/2/2 Sys IVD flow cytometer, and data obtained were analyzed using the FlowJo7.6.2 software. Differences between treatments were determined by a two-way ANOVA for multiple comparisons with 95% significance using GraphPad Prism 8. In all cases, 20 µL of parasites (5 × 10^6/mL) were stained per treatment with 300 µL of Hanks’ balanced saline solution (HBSS) and 10 µL of the staining mix containing […], 0.5 µL of 70 nM DiOC6, and 0.5 µL of 10 mg/mL Hoechst. Subsequently, parasites were incubated at room temperature for 15 min until reading.
T. cruzi epimastigotes in exponential growth phase were used to submit the parasites to a treatment under nutritional stress and further challenging the culture with the inhibitor UBMC-4 and the control drug bz. Nutritional stress was induced by starving the parasites in PBS. Parasites were grown either in complete RPMI medium or PBS (with and without 10 µM UBMC-4) for 24 h at 28 °C. Three independent biological replicates were analyzed per treatment. The experiments were performed in 24-well plates at an initial concentration of 1 × 10^7 total parasites in 2 mL/well. Parasites were centrifuged at 1800 RCF for 5 min, washed once with PBS buffer, and then resuspended in a final volume of 2 mL for further labeling and flow cytometry.
For orientation: A flow cytometer gives signals particle by particle.

The next experiment deals with T. cruzi trypomastigotes. In words: Flow cytometry of apoptosis-like markers in trypomastigotes. Particulars: 10 µM; for DNA damage (hypodiploidy), % of trypomastigote population: time not given. Here is the method: as §1
The same markers mentioned above were used for T. cruzi trypomastigotes. A total of 1 × 10^6 trypomastigotes were centrifuged at 1800 RCF for 5 min to remove the culture medium. Parasites were cultured at […] in PBS or 10% FBS-supplemented DMEM with or without 10 µM UBMC-4, 10 µM chloroquine, and 10 µM UBMC-4/chloroquine for 2 h and 5 h. All experiments were compared to a culture setup using bz as control compound. Three biological replicates and three experimental replicates were applied to data collected at each time point for experimental conduction of every portion of the study. In all cases, ANOVA was applied for multiple comparisons after determining that data were normal.

For `Oc1ccc(-c2nc(-c3ccc4sc5ccccc5c4c3)c(-c3ccccc3)[nH]2)cc1` [UBMC-4, 4-(4-dibenzo-[b,d]-thien-2-yl-5-phenyl-1H-imidazol-2-yl)phenol], in the experiment with T. cruzi epimastigotes [1] (normal nutritional conditions), the “intracellular ROS concentration, treated vs untreated” value is listed as “No significant differences”. For the same molecule, the “intracellular ROS concentration compared to untreated parasites” value with T. cruzi epimastigotes [1] (nutritional stress) is recorded as “twofold ROS concentration”. Besides, the “changes in apoptosis-like markers” value in the experiment with T. cruzi epimastigotes [2] (normal culture conditions) is “no changes in apoptosis-like markers”. Moreover, the “DNA fragmentation (hypodiploid, Sub G0/G1), % of population” value with T. cruzi epimastigotes [2] (nutritional stress) is recorded as “up to 39.4%”. Besides, in the experiment with T. cruzi epimastigotes [2] (nutritional stress), the “cell membrane damage (PI), % of population” value is reported as 38.4%. Also, in the experiment with T. cruzi epimastigotes [2] (nutritional stress), the “mitochondrial depolarization (DiOC6), % of population” value amounted to 99.9%. In the experiment with T. cruzi trypomastigotes (normal nutritional conditions, 2 h), the “mitochondrial membrane potential change” value is given as “remained intact (no hyper- or depolarization)”. For the same molecule, the “cell membrane permeability, % of trypomastigote population” value in the experiment on T. cruzi trypomastigotes (normal nutritional conditions, 5 h) is 2.2%; with T. cruzi trypomastigotes (nutritional stress, 5 h), 36%. Also, the “DNA damage (hypodiploidy), % of trypomastigote population” value turned out to be 23% in the experiment on T. cruzi trypomastigotes (normal nutritional conditions) and 54% with T. cruzi trypomastigotes (nutritional stress). In addition, the “Ψm depolarization, % of trypomastigotes” value in the experiment on T. cruzi trypomastigotes (nutritional stress, 2 h) stood at 32%; in the experiment on T. cruzi trypomastigotes (nutritional stress, 5 h) it was 40%.
